Measured values published in article PMC10221314 (Pharmaceuticals, 2023).

What was measured:
Assay type in all cases: cell-based
FXR = biological target: T1, FXR (Homo sapiens, UniProt Q96RI1); experiment: Yeast one-hybrid assay of FXR antagonistic activity in HEK-293T cells
T1 construct: a fusion plasmid of Gal4 DBD-NR-LBD, which included PPARα, PPARβ, PPARγ, RXRα, RXRβ, RXRγ, LXRα, LXRβ, GPBAR, PXR, and FXR; expressed in transfected cells; host or cells: HEK-293T
T1 sequence (Q96RI1 262-486 limits assumed): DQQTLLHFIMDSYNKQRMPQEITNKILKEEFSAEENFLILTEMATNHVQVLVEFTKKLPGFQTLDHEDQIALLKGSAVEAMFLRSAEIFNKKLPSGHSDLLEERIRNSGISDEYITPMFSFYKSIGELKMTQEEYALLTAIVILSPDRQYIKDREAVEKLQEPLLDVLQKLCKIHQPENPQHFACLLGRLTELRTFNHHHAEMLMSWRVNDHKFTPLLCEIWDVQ
Protocol: Cell counting: HEK-293T cells in logarithmic growth phase were digested with 0.25% trypsin, collected, and centrifuged. The trypsin-containing medium was discarded, and 2 mL of fresh phenol red-free DMEM medium containing 5% fetal bovine serum was added. The cells were then mixed with the medium to prepare a cell suspension and counted on a cell counting plate.
Cell plating: A determined number of cells were taken from the cell suspension, diluted with phenol red-free DMEM medium containing 5% fetal bovine serum, and plated at a concentration of 10,000 cells per well (100 µL medium) in a 96-well plate. The plate was then incubated at 37 °C and 5% CO2 for 24 h.
Cell transfection: Fresh phenol red-free DMEM medium was taken in a sterile environment, and the previously extracted pFXR-Binding plasmid and PG4.35[luc2P-9XGA4UAS-Hygro] plasmid were added. The mixture was stirred and allowed to stand at 23 °C for 3 min. Then, a 3% amount of transfection reagent was added to the mixture, and it was allowed to stand at 23 °C for 15 min. The mixture was then added to the 96-well plate at a volume of 10 µL per well and incubated at 37 °C in a 5% CO2 environment for 24 h.
The OA derivatives were prepared as 10 mM DMSO stock solutions and further diluted in a concentration gradient, with 10 µL added to each well. The final concentrations of the derivatives ranged from 10 µM to 0.03 µM, with 7 concentration gradients using […] dilution. The test was set with 3 duplicated wells.
Antagonism activity test: The firefly-Renilla Dual Fluorescence Assay Kit (Promega, #E2940, Madison, WI, USA) was used to measure the antagonism activity of the OA derivatives. Firstly, the firefly fluorescence reagent was added to the 96-well plate at a volume of 70 µL per well and shaken in darkness for 15 min. Then, the fluorescence intensity was measured at a wavelength of 645 ± 30 nm in a microplate reader (BioTek, Winooski, VT, USA). Next, the volume of Renilla reagent was added to the 96-well plate at a volume of 70 µL per well and shaken in darkness for 15 min. The fluorescence intensity was then measured at a wavelength of 525 ± 20 nm.
Data processing: The fluorescence data of firefly were divided by the fluorescence data of Renilla to remove errors, and the antagonism efficiency was calculated using the following formula: antagonism efficiency (%) = [1 − (FCompds. − FDMSO)/(FCDCA − FDMSO)] × 100%. In the formula, F represents fluorescence intensity. The antagonistic efficiency data were obtained as a concentration–effect curve using Graphpad Prism 8.0 software, and the corresponding IC50 value was calculated.

LXRα = biological target: T2, LXRα (Homo sapiens, UniProt Q13133); experiment: NR selectivity one-hybrid assay in HEK-293T cells (LXRα); conditions: activated by GW3965
T2 construct: a fusion plasmid of Gal4 DBD-NR LBD (comprising RXRα, RXRβ, RXRγ, PPARα, PPARβ, PPARγ, LXRα, LXRβ, GPBAR, and PXR); expressed in transfected cells; host or cells: HEK-293T
T2 sequence (Q13133 209-447 limits assumed): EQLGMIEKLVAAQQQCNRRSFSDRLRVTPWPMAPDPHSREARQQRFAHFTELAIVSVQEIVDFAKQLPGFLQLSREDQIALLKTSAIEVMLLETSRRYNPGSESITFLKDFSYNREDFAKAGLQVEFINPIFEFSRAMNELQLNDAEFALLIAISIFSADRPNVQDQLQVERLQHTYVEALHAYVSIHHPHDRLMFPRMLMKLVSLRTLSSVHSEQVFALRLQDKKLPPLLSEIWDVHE
Protocol: (§1) To assess the compound’s specificity, the mammalian one-hybrid assay was conducted. In this assay, HEK-293T cells were co-transfected with a fusion plasmid of Gal4 DBD-NR LBD (comprising RXRα, RXRβ, RXRγ, PPARα, PPARβ, PPARγ, LXRα, LXRβ, GPBAR, and PXR) and the UAS-TK-Luc reporter, followed by treatment with various concentrations of the compound. The positive control consisted of the corresponding nuclear receptor agonist, and the concentration used in the experiment was set to the EC50 of the agonist.
(§2) Figure 3 Compound 10b selectively antagonized FXR. The impact of compound 10b on various NRs was evaluated using a […] one-hybrid assay in HEK-293T cells. The cells were transiently co-transfected with a fusion plasmid of Gal4 DBD-NR-LBD, which included PPARα, PPARβ, PPARγ, RXRα, RXRβ, RXRγ, LXRα, LXRβ, GPBAR, PXR, and FXR, in combination with the UAS-TK-Luc reporter. […] The values are expressed as the means ± SE of three independent experiments. *: p < 0.05 vs. RA (relative agonist).

[1] = tested on: RXRα, RXRβ, RXRγ, LXRα, LXRβ, PXR, PPARα, PPARβ, PPARγ, and GPBAR; experiment: NR selectivity one-hybrid assay in HEK-293T cells (panel of metabolic NRs)
Protocol: as §1, §2

LX-2 cells = experiment: mRNA expression of liver fibrosis marker genes in TGFβ1-induced LX-2 cells; conditions: 20 μM, induced by 2 ng·mL^−1 TGFβ1, 24 h
Protocol: Cells and liver tissue samples were subjected to RNA extraction and purification, followed by reverse transcription of equal amounts of total RNA into […] using a Transcriptor First Strand cDNA Synthesis Kit (Roche). The relative expression levels of the target gene were determined using TaqMan probe/primers with an ABI Q3 quantitative real-time PCR system, while GAPDH/Gapdh was utilized as an internal control for mRNA expression. The fold change in the expression of the target mRNA was calculated using Equation 2^−ΔΔCt.
(A–E) The LX-2 cells underwent a 24 h treatment of 2 ng·mL^−1 TGFβ1, with or without varying concentrations of candidate compounds, following FBS starvation. […] GAPDH/GAPDH was used as the loading control. The mean ± SD values were obtained from three independent assays. […] ANOVA was followed by Tukey’s test for statistical analysis.

SMILES: CC1(C)CCC2(C(=O)O)CCC3(C)C(C(OC(=O)CCC(NC(=O)OC(C)(C)C)C(=O)OC(C)(C)C)CC4C5(C)CCC(O)C(C)(C)C5CCC43C)C2C1 [Compound 10b, 3β-hydroxy-12β-(4′-((tert-butoxycarbonyl)amide)-5′-(tert-butoxy)-L-glutamte)oxy-13H-olean-28-oic acid]
- IC50 (FXR; HEK-293T cells, CDCA (50 μM) as agonist, mean ± SE of three independent tests): 0.44 ± 0.15 µM
- times more potent than 10d (FXR; ratio of IC50 values): 8.3
- antagonistic effects against LXRα (LXRα): 10–20%
- agonistic effect for tested NRs or GPBAR [1]: no agonistic effect
- mRNA expression of ACTA2 (LX-2 cells): significantly decrease
- mRNA expression of COL1A1 (LX-2 cells): significantly decrease
- mRNA expression of CTGF (LX-2 cells): significantly decrease
- mRNA expression of ITGAV (LX-2 cells): significantly decrease
- mRNA expression of TGFb1 (LX-2 cells): significantly decrease
